According to patent publication US6413914B1, “Low foam N,N′-dialkylmalamide wetting agents” (Air Products and Chemicals, Inc., priority 2001, dated 2002):

Key:
Format in all cases: physicochemical
[1] = Foaming properties, procedure based upon ASTM D 1173-53; conditions: for Initial Foam: foam height at completion of addition
Protocol: The foaming properties of aqueous solutions of N,N′-di-iso-pentyl DL-malamide (Ex 2) and N,N′-di-2-ethylhexyl DL-malamide (Ex 3), were examined using a procedure based upon ASTM D 1173-53. In this test, a 0.1 wt % aqueous mixture of the surfactant was prepared, any undissolved solids were filtered off, and the filtrate was added from an elevated glass pipette to a glass receiver containing the same filtrate. The foam height was measured at the completion of the addition (“Initial Foam Height”) and the time required for the foam to dissipate at the air-liquid interface (“Time to 0 Foam”) was recorded. This test provides a comparison between the foaming characteristics of various surfactants. In general, in coatings, inks, adhesives, fountain solution, agricultural, and electronic chemical formulations, foam is undesirable because it complicates handling and can lead to coating and print defects, and to inefficient application of agricultural materials or electronic chemicals.
The foaming properties of 0.1 wt % solutions of two representative nonionic surfactants, a commercial nonylphenol 15 mole ethoxylate surfactant and a commercial C8 alkyl glucoside surfactant were examined using the procedure based upon ASTM D 1173-53.

[2] = Concentration of surfactant in filtered saturated solution in distilled water; conditions: shaken ~24 hours
Protocol: (§1) Saturated solutions of the materials of Examples 1-3 in distilled water were prepared. After shaking the solutions for ˜24 hours, the undissolved material was removed via filtration. Equilibrium surface tension data were obtained using the Wilhelmy plate method, described in L. Wilhelmy, Ann. Phys. 1863, 119, 177.

[3] = Equilibrium surface tension, Wilhelmy plate method, saturated solutions in distilled water; conditions: for Limiting EST: saturated solution in distilled water, undissolved material filtered off, Wilhelmy plate, 25° C.
Protocol: as §1
The limiting surface tensions represent the lowest surface tensions in water which can be achieved for a given surfactant regardless of the amount of surfactant used and is used to evaluate the effectiveness of a surfactant. Lower surface tensions would allow for the elimination of defects upon application of a formulation onto low energy surfaces.

[4] = 0.1 wt % aqueous mixture, filtered

Molecule	Foam after 5 min [1, 4] [cm]	Initial Foam [1, 4] [cm]	Concentration of Surfactant in Solution [2] [wt. %]	Limiting EST [3] [dyne/cm]	lowering the equilibrium surface tension of water (in words) [3]	Time to zero foam [1, 4]	Time to zero foam ([1]; 0.1 wt % solution) [min]
Nonylphenol 15 mole ethoxylate [reference compound]	4	5	–	–	–	–	>5
CC(C)CNC(=O)CC(O)C(=O)NCC(C)C (racemic) [Di-isobutyl DL-malamide (Ex 1), N,N′-Di-iso-butyl DL-malamide]	–	–	<1.0	51.3	–	–	–
CCCCC(CC)CNC(=O)CC(O)C(=O)NCC(CC)CCCC (racemic) [Di-2-ethylhexyl DL-malamide (Ex 3), N,N′-Di-2-ethylhexyl DL-malamide]	0	1.5	<0.1	38.5	particularly effective	˜2 sec	–

Second part, led by results:

Foam after 5 min [1, 4] [cm]	Initial Foam [1, 4] [cm]	Concentration of Surfactant in Solution [2] [wt. %]	Limiting EST [3] [dyne/cm]	lowering the equilibrium surface tension of water (in words) [3]	Time to zero foam [1, 4]	Molecule	Time to zero foam ([1]; 0.1 wt % solution) [min]
1.0	1.9	–	–	–	–	C8 Alkyl glucoside [reference compound]	37
0	1.4	<0.4	42.9	particularly effective	0.583 min	CC(C)CCNC(=O)CC(O)C(=O)NCCC(C)C (racemic) [Di-isopentyl DL-malamide (Ex 2), N,N′-Di-iso-pentyl DL-malamide]	–
